Results from US20240415914A1, “Water Dispersible Cannabinoid Compositions” (priority 2021, published 2024).
Read-outs that look alike come from different tables or passages of the source.

Key:
[1] = Stability of cannabinoid and Vitamin E components of Beverage 2 (AB Red) stored at 8° C. and 21-25° C., LCMSMS over 570 days; settings: for Chemical stability over the entire period (result in words): AB Red
Description: The LCMSMS was calibrated for 0-50 ng/ml cannabinoids with the same resin material used in the preparation of the concentrates. At each time period, 100 μml of beverage was diluted with 10 ml of methanol and injected into the LCMSMS for analysis.

[2] = assay type: physicochemical; settings: for Stability in Powder Concentrate (content by LCMSMS): stored at room temperature (21-25° C.)
Description: At each time period, 0.05 g of powder was dissolved in 10 ml-15 of ethanol, diluted to fall within the analytical range, and injected into the LCMSMS for analysis.

## CCCCCc1cc(O)c2c(c1)OC(C)(C)[C@@H]1CCC(C)=C[C@@H]21 [D9 THC, delta-9-tetrahydrocannabinol, reference compound]
[1]; 8° C., 0 days
  Stability of Cannabinoids in AB Red: 12.9 µg/mL
[1]; 8° C., 1 days
  Stability of Cannabinoids in AB Red: 13.0 µg/mL
[1]; 8° C., 2 days
  Stability of Cannabinoids in AB Red: 13.0 µg/mL
[1]; 8° C., 3 days
  Stability of Cannabinoids in AB Red: 12.7 µg/mL
[1]; 8° C., 5 days
  Stability of Cannabinoids in AB Red: 13.0 µg/mL
[1]; 8° C., 8 days
  Stability of Cannabinoids in AB Red: 12.6 µg/mL
[1]; 8° C., 9 days
  Stability of Cannabinoids in AB Red: 12.7 µg/mL
[1]; 8° C., 10 days
  Stability of Cannabinoids in AB Red: 12.8 µg/mL
[1]; 8° C., 11 days
  Stability of Cannabinoids in AB Red: 12.8 µg/mL
[1]; 8° C., 12 days
  Stability of Cannabinoids in AB Red: 12.9 µg/mL
[1]; 8° C., 15 days
  Stability of Cannabinoids in AB Red: 12.9 µg/mL
[1]; 8° C., 16 days
  Stability of Cannabinoids in AB Red: 12.7 µg/mL
[1]; 8° C., 17 days
  Stability of Cannabinoids in AB Red: 12.6 µg/mL
[1]; 8° C., 18 days
  Stability of Cannabinoids in AB Red: 12.8 µg/mL
[1]; 8° C., 19 days
  Stability of Cannabinoids in AB Red: 12.7 µg/mL
[1]; 8° C., 22 days
  Stability of Cannabinoids in AB Red: 12.7 µg/mL
[1]; 8° C., 23 days
  Stability of Cannabinoids in AB Red: 12.9 µg/mL
[1]; 8° C., 24 days
  Stability of Cannabinoids in AB Red: 12.9 µg/mL
[1]; 8° C., 25 days
  Stability of Cannabinoids in AB Red: 12.9 µg/mL
[1]; 8° C., 26 days
  Stability of Cannabinoids in AB Red: 12.7 µg/mL
[1]; 8° C., 29 days
  Stability of Cannabinoids in AB Red: 12.7 µg/mL
[1]; 8° C., 30 days
  Stability of Cannabinoids in AB Red: 12.9 µg/mL
[1]; 8° C., 60 days
  Stability of Cannabinoids in AB Red: 12.5 µg/mL
[1]; 8° C., 90 days
  Stability of Cannabinoids in AB Red: 13.0 µg/mL
[1]; 8° C., 120 days
  Stability of Cannabinoids in AB Red: 12.4 µg/mL
[1]; 8° C., 150 days
  Stability of Cannabinoids in AB Red: 12.8 µg/mL
[1]; 8° C., 180 days
  Stability of Cannabinoids in AB Red: 12.6 µg/mL
[1]; 8° C., 210 days
  Stability of Cannabinoids in AB Red: 12.3 µg/mL
[1]; 8° C., 240 days
  Stability of Cannabinoids in AB Red: 12.4 µg/mL
[1]; 8° C., 270 days
  Stability of Cannabinoids in AB Red: 12.6 µg/mL
[1]; 8° C., 300 days
  Stability of Cannabinoids in AB Red: 12.4 µg/mL
[1]; 8° C., 330 days
  Stability of Cannabinoids in AB Red: 12.7 µg/mL
[1]; 8° C., 390 days
  Stability of Cannabinoids in AB Red: 12.4 µg/mL
[1]; 8° C., 420 days
  Stability of Cannabinoids in AB Red: 12.4 µg/mL
[1]; 8° C., 450 days
  Stability of Cannabinoids in AB Red: 12.4 µg/mL
[1]; 8° C., 480 days
  Stability of Cannabinoids in AB Red: 12.2 µg/mL
[1]; 8° C., 510 days
  Stability of Cannabinoids in AB Red: 12.0 µg/mL
[1]; 8° C., 540 days
  Stability of Cannabinoids in AB Red: 11.9 µg/mL
[1]; 8° C., 570 days
  Stability of Cannabinoids in AB Red: 11.8 µg/mL
[1]; 21-25° C., 0 days
  Stability of Cannabinoids in AB Red: 12.9 µg/mL
[1]; 21-25° C., 1 days
  Stability of Cannabinoids in AB Red: 13.0 µg/mL
[1]; 21-25° C., 2 days
  Stability of Cannabinoids in AB Red: 13.0 µg/mL
[1]; 21-25° C., 3 days
  Stability of Cannabinoids in AB Red: 12.6 µg/mL
[1]; 21-25° C., 5 days
  Stability of Cannabinoids in AB Red: 12.4 µg/mL
[1]; 21-25° C., 8 days
  Stability of Cannabinoids in AB Red: 12.7 µg/mL
[1]; 21-25° C., 9 days
  Stability of Cannabinoids in AB Red: 12.8 µg/mL
[1]; 21-25° C., 10 days
  Stability of Cannabinoids in AB Red: 12.5 µg/mL
[1]; 21-25° C., 11 days
  Stability of Cannabinoids in AB Red: 12.9 µg/mL
[1]; 21-25° C., 12 days
  Stability of Cannabinoids in AB Red: 13.0 µg/mL
[1]; 21-25° C., 15 days
  Stability of Cannabinoids in AB Red: 12.7 µg/mL
[1]; 21-25° C., 16 days
  Stability of Cannabinoids in AB Red: 12.4 µg/mL
[1]; 21-25° C., 17 days
  Stability of Cannabinoids in AB Red: 12.9 µg/mL
[1]; 21-25° C., 18 days
  Stability of Cannabinoids in AB Red: 12.8 µg/mL
[1]; 21-25° C., 19 days
  Stability of Cannabinoids in AB Red: 12.8 µg/mL
[1]; 21-25° C., 22 days
  Stability of Cannabinoids in AB Red: 12.9 µg/mL
[1]; 21-25° C., 23 days
  Stability of Cannabinoids in AB Red: 12.9 µg/mL
[1]; 21-25° C., 24 days
  Stability of Cannabinoids in AB Red: 12.5 µg/mL
[1]; 21-25° C., 25 days
  Stability of Cannabinoids in AB Red: 12.5 µg/mL
[1]; 21-25° C., 26 days
  Stability of Cannabinoids in AB Red: 12.4 µg/mL
[1]; 21-25° C., 29 days
  Stability of Cannabinoids in AB Red: 12.7 µg/mL
[1]; 21-25° C., 30 days
  Stability of Cannabinoids in AB Red: 12.4 µg/mL
[1]; 21-25° C., 60 days
  Stability of Cannabinoids in AB Red: 12.2 µg/mL
[1]; 21-25° C., 90 days
  Stability of Cannabinoids in AB Red: 12.8 µg/mL
[1]; 21-25° C., 120 days
  Stability of Cannabinoids in AB Red: 12.4 µg/mL
[1]; 21-25° C., 150 days
  Stability of Cannabinoids in AB Red: 12.4 µg/mL
[1]; 21-25° C., 180 days
  Stability of Cannabinoids in AB Red: 12.8 µg/mL
[1]; 21-25° C., 210 days
  Stability of Cannabinoids in AB Red: 12.4 µg/mL
[1]; 21-25° C., 240 days
  Stability of Cannabinoids in AB Red: 12.5 µg/mL
[1]; 21-25° C., 270 days
  Stability of Cannabinoids in AB Red: 12.5 µg/mL
[1]; 21-25° C., 300 days
  Stability of Cannabinoids in AB Red: 12.4 µg/mL
[1]; 21-25° C., 330 days
  Stability of Cannabinoids in AB Red: 12.1 µg/mL
[1]; 21-25° C., 390 days
  Stability of Cannabinoids in AB Red: 12.1 µg/mL
[1]; 21-25° C., 420 days
  Stability of Cannabinoids in AB Red: 12.2 µg/mL
[1]; 21-25° C., 450 days
  Stability of Cannabinoids in AB Red: 12.2 µg/mL
[1]; 21-25° C., 480 days
  Stability of Cannabinoids in AB Red: 11.8 µg/mL
[1]; 21-25° C., 510 days
  Stability of Cannabinoids in AB Red: 12.3 µg/mL
[1]; 21-25° C., 540 days
  Stability of Cannabinoids in AB Red: 12.2 µg/mL
[1]; 21-25° C., 570 days
  Stability of Cannabinoids in AB Red: 11.8 µg/mL
[1]; stored at 8° C., 570 days
  Chemical stability over the entire period (result in words): high degree of stability
[1]; stored at 21-25° C., 570 days
  Chemical stability over the entire period (result in words): high degree of stability
[2]; powder concentrate, room temperature (21-25° C.), 570 days
  Chemical stability over the entire period (result in words): no significant degradation
[2]; day 0
  Stability in Powder Concentrate (content by LCMSMS): 2.55 mg/g powder
[2]; day 1
  Stability in Powder Concentrate (content by LCMSMS): 2.55 mg/g powder
[2]; day 2
  Stability in Powder Concentrate (content by LCMSMS): 2.46 mg/g powder
[2]; day 3
  Stability in Powder Concentrate (content by LCMSMS): 2.63 mg/g powder
[2]; day 5
  Stability in Powder Concentrate (content by LCMSMS): 2.66 mg/g powder
[2]; day 8
  Stability in Powder Concentrate (content by LCMSMS): 2.49 mg/g powder
[2]; day 9
  Stability in Powder Concentrate (content by LCMSMS): 2.49 mg/g powder
[2]; day 10
  Stability in Powder Concentrate (content by LCMSMS): 2.60 mg/g powder
[2]; day 11
  Stability in Powder Concentrate (content by LCMSMS): 2.58 mg/g powder
[2]; day 12
  Stability in Powder Concentrate (content by LCMSMS): 2.65 mg/g powder
[2]; day 15
  Stability in Powder Concentrate (content by LCMSMS): 2.49 mg/g powder
[2]; day 16
  Stability in Powder Concentrate (content by LCMSMS): 2.54 mg/g powder
[2]; day 17
  Stability in Powder Concentrate (content by LCMSMS): 2.54 mg/g powder
[2]; day 18
  Stability in Powder Concentrate (content by LCMSMS): 2.55 mg/g powder
[2]; day 19
  Stability in Powder Concentrate (content by LCMSMS): 2.51 mg/g powder
[2]; day 22
  Stability in Powder Concentrate (content by LCMSMS): 2.46 mg/g powder
[2]; day 23
  Stability in Powder Concentrate (content by LCMSMS): 2.65 mg/g powder
[2]; day 24
  Stability in Powder Concentrate (content by LCMSMS): 2.60 mg/g powder
[2]; day 25
  Stability in Powder Concentrate (content by LCMSMS): 2.55 mg/g powder
[2]; day 26
  Stability in Powder Concentrate (content by LCMSMS): 2.52 mg/g powder
[2]; day 29
  Stability in Powder Concentrate (content by LCMSMS): 2.47 mg/g powder
[2]; day 30
  Stability in Powder Concentrate (content by LCMSMS): 2.66 mg/g powder
[2]; day 60
  Stability in Powder Concentrate (content by LCMSMS): 2.66 mg/g powder
[2]; day 90
  Stability in Powder Concentrate (content by LCMSMS): 2.49 mg/g powder
[2]; day 120
  Stability in Powder Concentrate (content by LCMSMS): 2.66 mg/g powder
[2]; day 150
  Stability in Powder Concentrate (content by LCMSMS): 2.61 mg/g powder
[2]; day 180
  Stability in Powder Concentrate (content by LCMSMS): 2.59 mg/g powder
[2]; day 210
  Stability in Powder Concentrate (content by LCMSMS): 2.54 mg/g powder
[2]; day 240
  Stability in Powder Concentrate (content by LCMSMS): 2.53 mg/g powder
[2]; day 270
  Stability in Powder Concentrate (content by LCMSMS): 2.47 mg/g powder
[2]; day 300
  Stability in Powder Concentrate (content by LCMSMS): 2.57 mg/g powder
[2]; day 330
  Stability in Powder Concentrate (content by LCMSMS): 2.49 mg/g powder
[2]; day 360
  Stability in Powder Concentrate (content by LCMSMS): 2.58 mg/g powder
[2]; day 390
  Stability in Powder Concentrate (content by LCMSMS): 2.48 mg/g powder
[2]; day 420
  Stability in Powder Concentrate (content by LCMSMS): 2.53 mg/g powder
[2]; day 450
  Stability in Powder Concentrate (content by LCMSMS): 2.61 mg/g powder
[2]; day 480
  Stability in Powder Concentrate (content by LCMSMS): 2.65 mg/g powder
[2]; day 510
  Stability in Powder Concentrate (content by LCMSMS): 2.64 mg/g powder
[2]; day 540
  Stability in Powder Concentrate (content by LCMSMS): 2.47 mg/g powder
[2]; day 570
  Stability in Powder Concentrate (content by LCMSMS): 2.64 mg/g powder
